Data from patent publication US8524465B2, “Agonists of bitter taste receptors and uses thereof” (Deutsches Institut fuer Ernaehrungsforschung …, priority 2007, dated 2013).
Values belong to the compound of their own block, whether it stands above or below them.

Legend:
[1] = molecular target: T1, TAS2R14 (Homo sapiens, UniProt Q9NYV8); assay: FLIPR calcium imaging, HEK-293T Gα16gust44 cells expressing TAS2R14; assay type: cell-based; details: for molar range at which TAS2R14 responded to the bitter substance: calcium response, transfected HEK-293T Gα16gust44 cells, FLIPR
T1 construct: expressed in transfected cells; host or cells: HEK-293T cells stably expressing the chimeric G-protein subunit Gα16gust44
T1 sequence (Q9NYV8 1-317): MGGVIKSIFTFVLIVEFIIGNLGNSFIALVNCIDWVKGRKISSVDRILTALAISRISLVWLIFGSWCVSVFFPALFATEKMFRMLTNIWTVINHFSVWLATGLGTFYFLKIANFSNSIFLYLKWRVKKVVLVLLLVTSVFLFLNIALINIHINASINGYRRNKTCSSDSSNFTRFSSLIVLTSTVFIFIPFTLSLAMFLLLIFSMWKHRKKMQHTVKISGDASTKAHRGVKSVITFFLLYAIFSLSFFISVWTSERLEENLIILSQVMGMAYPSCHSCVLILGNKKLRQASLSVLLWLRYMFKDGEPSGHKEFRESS
Method: (§1) Tastants (Sigma-Aldrich, Taufkirchen, Germany) were dissolved and administered in the following (in mM): 130 NaCl, 5 KCl, 10 HEPES, 2 CaCl2, and 10 mM glucose, pH7.4. Data were collected from 1-2 independent experiments performed at least in triplicate and processed with SigmaPlot (SPSS, Chicago, Ill.). For dose-response curve calculation, the peak fluorescence responses after compound addition were corrected for and normalized to background fluorescence (ΔF/F=(F−F0)/F0), and baseline noise was subtracted.
(§2) All 25 human bitter taste receptors were challenged with 100 μM artemorin (FIG. 1) in a FLIPR calcium imaging experiment.

[2] = molecular target: T2, TAS2R10 (Homo sapiens, UniProt Q9NYW0, T156M); assay: FLIPR calcium imaging, HEK-293T Gα16gust44 cells expressing TAS2R10; assay type: cell-based
T2 construct: expressed in transfected cells; host or cells: HEK-293T cells stably expressing the chimeric G-protein subunit Gα16gust44
T2 sequence (Q9NYW0 1-307 T156M): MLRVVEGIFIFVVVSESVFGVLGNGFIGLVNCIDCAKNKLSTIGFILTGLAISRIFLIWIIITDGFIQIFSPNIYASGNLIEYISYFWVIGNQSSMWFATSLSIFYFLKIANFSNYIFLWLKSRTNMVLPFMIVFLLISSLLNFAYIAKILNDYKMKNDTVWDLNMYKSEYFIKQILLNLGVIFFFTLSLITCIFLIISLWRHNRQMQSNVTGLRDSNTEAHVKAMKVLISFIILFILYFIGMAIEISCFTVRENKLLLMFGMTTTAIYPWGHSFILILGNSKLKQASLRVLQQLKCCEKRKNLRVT
Method: as §1, §2

[3] = molecular target: T3, TAS2R4 (Homo sapiens, UniProt Q9NYW5); assay: FLIPR calcium imaging, HEK-293T Gα16gust44 cells expressing TAS2R4; assay type: cell-based
T3 construct: expressed in transfected cells; host or cells: HEK-293T cells stably expressing the chimeric G-protein subunit Gα16gust44
T3 sequence (Q9NYW5 1-299): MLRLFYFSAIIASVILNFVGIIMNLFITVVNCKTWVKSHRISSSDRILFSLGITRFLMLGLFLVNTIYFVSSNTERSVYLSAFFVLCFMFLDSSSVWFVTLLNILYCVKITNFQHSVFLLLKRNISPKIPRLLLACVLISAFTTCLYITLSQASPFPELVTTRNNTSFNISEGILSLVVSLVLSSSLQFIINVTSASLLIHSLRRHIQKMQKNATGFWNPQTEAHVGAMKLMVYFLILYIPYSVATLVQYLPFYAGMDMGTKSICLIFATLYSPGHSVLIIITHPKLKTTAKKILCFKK
Method: as §1, §2

[4] = system: mock-transfected cells; details: 1 mM PROP
Method: as §1, §2

[5] = challenged with 100 μM artemorin, FIG. 2

Compound: C=C1C(=O)O[C@@H]2[C@H]3C(C)=CC[C@@]34O[C@@]4(C)CC[C@@H]12 [Arglabin]
molar range at which TAS2R14 responded to the bitter substance [1]: 0.1 mM
molar range at which TAS2R10 responded to the bitter substance ([2]; calcium response, transfected HEK-293T Gα16gust44 cells, FLIPR): 0.1 mM

molar range at which TAS2R14 responded to the bitter substance [1]: 10 mM
Compound: CCNC(=S)NCC [N,N′-Diethylthiourea]

Compound: C=C1CC[C@H]2C(=C)C(=O)O[C@@H]2/C=C(\C)CC[C@H]1O [artemorin]
receptor response in FLIPR calcium imaging experiment (TAS2R4) [3, 5]: responded to artemorin in a dose-dependent manner
receptor response in FLIPR calcium imaging experiment (TAS2R14) [1, 5]: responded to artemorin in a dose-dependent manner
receptor response in FLIPR calcium imaging experiment (TAS2R10) [2, 5]: responded to artemorin in a dose-dependent manner

Compound: CCCc1cc(=O)[nH]c(=S)[nH]1 [propylthiouracil]
calcium responses in TAS2R4-expressing cells ([3]; result in words): very small (somewhat questionable) and no dose-dependency can be shown
signals of mock-transfected cells [4]: elicits endogenous signals of mock-transfected cells
